Format in all cases: ADME, organism-based
The nature of data set [1]: Drug recovery in po dosed rat excreted feces measured over 0 to 24 hrs after drug administration by HPLC analysis relative to starting drug dose. The following applies: faeces, read-out: Drug recovery.
The nature of data set [2]: Drug excretion in Sprague-Dawley rat feces assessed as metabolite 3-keto-saikogenin f level at 15 mg/kg, iv by LC-DAD-IT-TOF-MS analysis. Further details: dose 15 mg/kg, route intravenous; call rule not given here. The settings on record: in vivo.
Data set [3] is described as follows: Drug excretion in Sprague-Dawley rat bile assessed as metabolite delta1-saikogenin f level at 15 mg/kg, iv by LC-DAD-IT-TOF-MS analysis. Set-up: dose 15 mg/kg, route intravenous. The settings on record: in vivo.
Data set [4] in a line: Drug excretion in Sprague-Dawley rat feces assessed as metabolite delta1-saikogenin f level at 15 mg/kg, iv by LC-DAD-IT-TOF-MS analysis. The settings on record: in vivo. Further details: dose 15 mg/kg, route intravenous.
Data set [5] is described as follows: Drug excretion in Sprague-Dawley rat feces assessed as metabolite hydroxysaikosaponin a level at 50 mg/kg, po administered through gavage by LC-DAD-IT-TOF-MS analysis. Further details: dose 50 mg/kg, route oral. The following applies: in vivo.
For data set [6], the system named is Plasma. Briefly: Drug metabolism in Sprague-Dawley rat plasma assessed as metabolite prosaikogenin f formation at 50 mg/kg, po administered through gavage by LC-DAD-IT-TOF-MS analysis. Further details: dose 50 mg/kg, route oral. The following applies: in vivo.
A short description of data set [7]: Drug excretion in Sprague-Dawley rat bile assessed as metabolite prosaikogenin f level at 50 mg/kg, po administered through gavage by LC-DAD-IT-TOF-MS analysis. Further details: dose 50 mg/kg, route oral. The following applies: in vivo.
Data set [8] can be described thus: Drug excretion in Sprague-Dawley rat urine assessed as metabolite prosaikogenin f level at 50 mg/kg, po administered through gavage by LC-DAD-IT-TOF-MS analysis. The settings on record: in vivo. Further details: dose 50 mg/kg, route oral.
Data set [9] concerns Plasma. Briefly: Drug metabolism in Sprague-Dawley rat plasma assessed as metabolite saikogenin f formation at 50 mg/kg, po administered through gavage by LC-DAD-IT-TOF-MS analysis. The settings on record: in vivo. Further details: dose 50 mg/kg, route oral.
Data set [10] is described as follows: Drug excretion in Sprague-Dawley rat urine assessed as metabolite saikogenin f level at 50 mg/kg, po administered through gavage by LC-DAD-IT-TOF-MS analysis. Set-up: dose 50 mg/kg, route oral. The following applies: in vivo.
A short description of data set [11]: Drug excretion in Sprague-Dawley rat feces assessed as metabolite saikogenin f level at 50 mg/kg, po administered through gavage by LC-DAD-IT-TOF-MS analysis. Further details: dose 50 mg/kg, route oral. The settings on record: in vivo.
Data set [12] can be described thus: Drug excretion in Sprague-Dawley rat bile assessed as metabolite 3-keto-saikogenin f level at 50 mg/kg, po administered through gavage by LC-DAD-IT-TOF-MS analysis. Further details: dose 50 mg/kg, route oral. The settings on record: in vivo.
Data set [13] can be described thus: Drug excretion in Sprague-Dawley rat urine assessed as metabolite delta1-saikogenin f level at 50 mg/kg, po administered through gavage by LC-DAD-IT-TOF-MS analysis. Further details: dose 50 mg/kg, route oral. The settings on record: in vivo.
Data set [14] can be described thus: Drug excretion in Sprague-Dawley rat urine assessed as metabolite saikogenin f-27-oic acid level at 50 mg/kg, po administered through gavage by LC-DAD-IT-TOF-MS analysis. Set-up: dose 50 mg/kg, route oral. The settings on record: in vivo.
Data set [15] is described as follows: Drug excretion in Sprague-Dawley rat feces assessed as metabolite saikogenin f-27-oic acid level at 50 mg/kg, po administered through gavage by LC-DAD-IT-TOF-MS analysis. Further details: dose 50 mg/kg, route oral. The settings on record: in vivo.
Data set [16] concerns Plasma. The data set is described as follows: Drug uptake in Sprague-Dawley rat plasma at 15 mg/kg, iv by LC-DAD-IT-TOF-MS analysis. Set-up: dose 15 mg/kg, route intravenous. The following applies: in vivo.
The nature of data set [17]: Drug excretion in Sprague-Dawley rat urine at 15 mg/kg, iv by LC-DAD-IT-TOF-MS analysis. The following applies: in vivo. Set-up: dose 15 mg/kg, route intravenous.
Data set [18] in a line: Drug excretion in Sprague-Dawley rat urine assessed as metabolite hydroxysaikosaponin a level at 15 mg/kg, iv by LC-DAD-IT-TOF-MS analysis. Further details: dose 15 mg/kg, route intravenous. The following applies: in vivo.
Data set [19] in a line: Drug excretion in Sprague-Dawley rat feces assessed as metabolite hydroxysaikosaponin a level at 15 mg/kg, iv by LC-DAD-IT-TOF-MS analysis. The settings on record: in vivo. Further details: dose 15 mg/kg, route intravenous.
Data set [20] is described as follows: Drug excretion in Sprague-Dawley rat bile assessed as metabolite prosaikogenin f level at 15 mg/kg, iv by LC-DAD-IT-TOF-MS analysis. Set-up: dose 15 mg/kg, route intravenous. The following applies: in vivo.

Where only a bound is given, the exact number is not on record here.

For the compound `C[C@H]1O[C@@H](O[C@H]2CC[C@@]3(C)[C@@H](CC[C@]4(C)[C@@H]3C=C[C@]35OC[C@@]6(CCC(C)(C)C[C@H]63)[C@@H](O)C[C@]54C)[C@]2(C)CO)[C@H](O)[C@@H](O[C@@H]2O[C@H](CO)[C@@H](O)[C@H](O)[C@H]2O)[C@H]1O` [SAIKOSAPONIN A], in [1], the dose excreted was over 50%. The Drug excretion entry in [2] is “metabolite_not_detected”; in data set [3], “metabolite_not_detected”; in data set [4], “metabolite_not_detected”; in data set [5], “metabolite_not_detected”; in [7] it was “metabolite_detected”; in data set [8] it was “metabolite_detected”. Moreover, the Drug excretion entry in data set [10] is given as “metabolite_detected”; in data set [11], “metabolite_detected”; in data set [12], “metabolite_not_detected”; in data set [13], “metabolite_detected”; in [14] it was “metabolite_detected”; in data set [15] it was “metabolite_detected”. The Drug excretion result in [17] was “metabolite_detected”; in data set [18] it was “metabolite_not_detected”; in data set [19] it was “metabolite_not_detected”; in data set [20], “metabolite_detected”. In addition, the Drug metabolism entry is recorded as “metabolite_detected” with Plasma [6] and “metabolite_not_detected” with Plasma [9]. For the same compound, in the data set with Plasma [16], the Drug uptake result is “Active”.

(Values after ChEMBL document CHEMBL3525998, “Metabolism of saikosaponin a in rats: diverse oxidations on the aglycone moiety in liver and intestine in addition to hydrolysis of glycosidic bonds” (Drug Metab Dispos, 2013).)
